Drawing on patent US11472791B2 (Incyte Corporation, priority 2019, dated 2022), this text covers IC50 for 25 molecules.

SMILES strings stand for the structures. A value given as a limit tells only on which side of the number the result lay.

This test deals with CDK2/Cyclin E1 (Homo sapiens (Human), UniProt P24941). Description: CDK2/Cyclin E1 HTRF enzyme activity assay. It counts as biochemical. The conditions noted are these: 1 mM ATP. The method, then: Assays are conducted in white 384-well polystyrene plates in a final reaction volume of 8 μL. […] HTRF signals are read after 1 hour at room temperature on a PHERAstar FS plate reader (BMG Labtech). Data is analyzed with IDBS XLFit and GraphPad Prism 5.0 software using a three or four parameter dose response curve to determine IC50 for each compound.
(Time-resolved FRET reads energy transfer from a long-lived donor to a nearby acceptor.)
With `CNCc1ccc(-n2cc(-c3nc(NC4CCN(S(=O)(=O)C5CC5)CC4)ncc3C#N)cn2)c(Cl)c1` [Example 114, 4-(1-(2-Chloro-4-((methylamino)methyl)phenyl)-1H-pyrazol-4-yl)-2-((1-(cyclopropylsulfonyl)piperidin-4-yl)amino)pyrimidine-5-carbonitrile], the IC50 (in general, the midpoint of a concentration-inhibition curve) was less than 50 nM.
Then `COC(=O)NCC1(NCc2ccc(-n3cc(-c4nc(NC5CCN(S(C)(=O)=O)CC5)ncc4C#N)cn3)c(Cl)c2)CCCC1` [Example 282, Methyl ((1-((3-chloro-4-(4-(5-cyano-2-((1-(methylsulfonyl)piperidin-4-yl)amino)pyrimidin-4-yl)-1H-pyrazol-1-yl)benzyl)amino)cyclopentyl)methyl)carbamate], with less than 50 nM.
`CN1CCN(Cc2ccc(-n3cc(-c4nc(N[C@H]5CCN(S(C)(=O)=O)C[C@H]5F)ncc4C#N)cn3)c(Cl)c2)CC1` [Example 111, 4-(1-(2-Chloro-4-((4-methylpiperazin-1-yl)methyl)phenyl)-1H-pyrazol-4-yl)-2-(((3R,4S)-3-fluoro-1-(methylsulfonyl)piperidin-4-yl)amino)pyrimidine-5-carbonitrile] registered an IC50 of less than 50 nM.
With `CCN(CC)CCCCS(=O)(=O)N1CCC(Nc2ncc(C#N)c(-c3cnn(CC(C)(C)O)c3)n2)CC1` [Example 216, 2-((1-((4-(Diethylamino)butyl)sulfonyl)piperidin-4-yl)amino)-4-(1-(2-hydroxy-2-methylpropyl)-1H-pyrazol-4-yl)pyrimidine-5-carbonitrile] the figure was less than 50 nM.
Then `CC(C)(C(N)=O)n1cc(-c2nc(NC3CCN(S(C)(=O)=O)CC3)ncc2C(F)(F)F)cn1` [Example 30, 2-Methyl-2-(4-(2-((1-(methylsulfonyl)piperidin-4-yl)amino)-5-(trifluoromethyl)pyrimidin-4-yl)-1H-pyrazol-1-yl)propanamide], with less than 50 nM; and `CCn1cnc(S(=O)(=O)N2CCC(Nc3ncc(C(F)(F)F)c(-c4cnn(C5CCOCC5)c4)n3)CC2)c1` [Example 24, N-(1-((1-Ethyl-1H-imidazol-4-yl)sulfonyl)piperidin-4-yl)-4-(1-(tetrahydro-2H-pyran-4-yl)-1H-pyrazol-4-yl)-5-(trifluoromethyl)pyrimidin-2-amine], with less than 50 nM.
Then `Cn1cnc(S(=O)(=O)N2CCC(Nc3ncc(C(F)(F)F)c(-c4cnn(CC(F)(F)F)c4)n3)CC2)c1` [Example 25, N-(1-((1-Methyl-1H-imidazol-4-yl)sulfonyl)piperidin-4-yl)-4-(1-(2,2,2-trifluoroethyl)-1H-pyrazol-4-yl)-5-(trifluoromethyl)pyrimidin-2-amine], with less than 50 nM.
For `CS(=O)(=O)N1CCC(Nc2ncc(C#N)c(-c3cnn(-c4ccc(CN[C@@H]5CCCOC5)cc4Cl)c3)n2)CC1` [Example 195, (R)-4-(1-(2-Chloro-4-(((tetrahydro-2H-pyran-3-yl)amino)methyl)phenyl)-1H-pyrazol-4-yl)-2-((1-(methylsulfonyl)piperidin-4-yl)amino)pyrimidine-5-carbonitrile], the half-inhibitory concentration (IC50) was less than 50 nM.
As for `CCN(CC)CCCCS(=O)(=O)N1CCC(Nc2ncc(C(F)(F)F)c(-c3cnn(CC(C)(C)O)c3)n2)CC1` [Example 79, 1-(4-(2-((1-((4-(Diethylamino)butyl)sulfonyl)piperidin-4-yl)amino)-5-(trifluoromethyl)pyrimidin-4-yl)-1H-pyrazol-1-yl)-2-methylpropan-2-ol], the IC50 is less than 50 nM.
With `CCS(=O)(=O)N1CCC(Nc2ncc(C#N)c(-c3cnn(-c4ccc(CN[C@H]5CC[C@](C)(O)CC5)cc4Cl)c3)n2)CC1` [Example 176, 4-(1-(2-Chloro-4-((((1r,4r)-4-hydroxy-4-methylcyclohexyl)amino)methyl)phenyl)-1H-pyrazol-4-yl)-2-((1-(ethylsulfonyl)piperidin-4-yl)amino)pyrimidine-5-carbonitrile] the figure was less than 50 nM; with `Cc1nc(CN2CCN(C)CC2)ccc1-n1cc(-c2nc(N[C@H]3CCN(S(=O)(=O)c4cn(C)cn4)C[C@H]3C)ncc2C(F)(F)F)cn1` [Example 255, N-((3R,4S)-3-methyl-1-((1-methyl-1H-imidazol-4-yl)sulfonyl)piperidin-4-yl)-4-(1-(2-methyl-6-((4-methylpiperazin-1-yl)methyl)pyridin-3-yl)-1H-pyrazol-4-yl)-5-(trifluoromethyl)pyrimidin-2-amine], less than 50 nM.
Then `N#Cc1cnc(NC2CCN(S(=O)(=O)c3ccccn3)CC2)nc1-c1cnn(CC(F)(F)F)c1` [Example 39, 2-((1-(Pyridin-2-ylsulfonyl)piperidin-4-yl)amino)-4-(1-(2,2,2-trifluoroethyl)-1H-pyrazol-4-yl)pyrimidine-5-carbonitrile], with less than 50 nM; and `CN1CCC(S(=O)(=O)N2CCC(Nc3ncc(C(F)(F)F)c(-c4cnn(CC(C)(C)O)c4)n3)CC2)CC1` [Example 87, 2-Methyl-1-(4-(2-((1-((1-methylpiperidin-4-yl)sulfonyl)piperidin-4-yl)amino)-5-(trifluoromethyl)pyrimidin-4-yl)-1H-pyrazol-1-yl)propan-2-ol], with less than 50 nM; and `COC(=O)N1CCC[C@@H](NCc2ccc(-n3cc(-c4nc(NC5CCN(S(C)(=O)=O)CC5)ncc4C#N)cn3)c(Cl)c2)C1` [Example 168, Methyl (R)-3-((3-chloro-4-(4-(5-cyano-2-((1-(methylsulfonyl)piperidin-4-yl)amino)pyrimidin-4-yl)-1H-pyrazol-1-yl)benzyl)amino)piperidine-1-carboxylate], with less than 50 nM.
With `CN1CCN(CCCS(=O)(=O)N2CC[C@H](Nc3ncc(C(F)(F)F)c(-c4cnn(CC(C)(C)O)c4)n3)[C@H](F)C2)CC1` [Example 209, 1-(4-(2-(((3R,4S)-3-Fluoro-1-((3-(4-methylpiperazin-1-yl)propyl)sulfonyl)piperidin-4-yl)amino)-5-(trifluoromethyl)pyrimidin-4-yl)-1H-pyrazol-1-yl)-2-methylpropan-2-ol] the figure was less than 50 nM; with `CN1CCC(S(=O)(=O)N2CCC(Nc3ncc(C(F)(F)F)c(-c4cnn(CC(C)(C)O)c4)n3)CC2)C1` (racemic) [Example 86, (±)-2-Methyl-1-(4-(2-((1-((1-methylpyrrolidin-3-yl)sulfonyl)piperidin-4-yl)amino)-5-(trifluoromethyl)pyrimidin-4-yl)-1H-pyrazol-1-yl)propan-2-ol], less than 50 nM; with `Cc1nc(CNC(C)(C)C)ccc1-n1cc(-c2nc(NC3CCN(S(C)(=O)=O)CC3)ncc2C#N)cn1` [Example 262, 4-(1-(6-((tert-Butylamino)methyl)-2-methylpyridin-3-yl)-1H-pyrazol-4-yl)-2-((1-(methylsulfonyl)piperidin-4-yl)amino)pyrimidine-5-carbonitrile], less than 50 nM.
In the case of `CCS(=O)(=O)N1CC[C@H](Nc2ncc(C#N)c(-c3cnn(-c4ccc(CNC)cc4Cl)c3)n2)[C@H](F)C1` [Example 117, 4-(1-(2-Chloro-4-((methylamino)methyl)phenyl)-1H-pyrazol-4-yl)-2-(((3R,4S)-1-(ethylsulfonyl)-3-fluoropiperidin-4-yl)amino)pyrimidine-5-carbonitrile], the IC50 was less than 50 nM.
Then `CC(C)(O)Cn1cc(-c2nc(NC3CCN(S(=O)(=O)CCCN4CCOCC4)CC3)ncc2C(F)(F)F)cn1` [Example 63, 2-Methyl-1-(4-(2-((1-((3-morpholinopropyl)sulfonyl)piperidin-4-yl)amino)-5-(trifluoromethyl)pyrimidin-4-yl)-1H-pyrazol-1-yl)propan-2-ol], with less than 50 nM.
Then `C[C@@H]1CN(S(=O)(=O)C2CC2)CC[C@@H]1Nc1ncc(C(F)(F)F)c(-c2cnn([C@H]3C[C@@](C)(N)C3)c2)n1` [Example 47, 4-(1-((1s,3r)-3-Amino-3-methylcyclobutyl)-1H-pyrazol-4-yl)-N-((3R,4S)-1-(cyclopropylsulfonyl)-3-methylpiperidin-4-yl)-5-(trifluoromethyl)pyrimidin-2-amine], with less than 50 nM.
Molecule `Cc1cc(CN2CCN(C)CC2)ccc1-n1cc(-c2nc(NC3CCN(S(=O)(=O)c4cn(C)cn4)CC3)ncc2C(F)(F)F)cn1` [Example 100, N-(1-((1-Methyl-1H-imidazol-4-yl)sulfonyl)piperidin-4-yl)-4-(1-(2-methyl-4-((4-methylpiperazin-1-yl)methyl)phenyl)-1H-pyrazol-4-yl)-5-(trifluoromethyl)pyrimidin-2-amine] registered an IC50 of less than 50 nM.
Then `CNCc1ccc(-n2cc(-c3nc(N[C@H]4CCN(S(=O)(=O)C5CC5)C[C@H]4F)ncc3C(F)(F)F)cn2)c(C)c1` [Example 123, N-((3R,4S)-1-(Cyclopropylsulfonyl)-3-fluoropiperidin-4-yl)-4-(1-(2-methyl-4-((methylamino)methyl)phenyl)-1H-pyrazol-4-yl)-5-(trifluoromethyl)pyrimidin-2-amine], with less than 50 nM; and `CS(=O)(=O)N1CCC(Nc2ncc(C#N)c(-c3cnn(-c4ccc(CN[C@H]5CC[C@@H](CO)CC5)cc4Cl)c3)n2)CC1` [Example 289, 4-(1-(2-chloro-4-((((1s,4s)-4-(hydroxymethyl)cyclohexyl)amino)methyl)phenyl)-1H-pyrazol-4-yl)-2-((1-(methylsulfonyl)piperidin-4-yl)amino)pyrimidine-5-carbonitrile], with less than 50 nM; and `Cc1nc(CNC(C)C)ccc1-n1cc(-c2nc(NC3CCN(S(=O)(=O)C4CC4)CC3)ncc2C#N)cn1` [Example 153, 2-((1-(Cyclopropylsulfonyl)piperidin-4-yl)amino)-4-(1-(6-((isopropylamino)methyl)-2-methylpyridin-3-yl)-1H-pyrazol-4-yl)pyrimidine-5-carbonitrile], with less than 50 nM.
With `C[C@H]1COCCN1CCCS(=O)(=O)N1CCC(Nc2ncc(C(F)(F)F)c(-c3cnn(CC(C)(C)O)c3)n2)CC1` [Example 71, (S)-2-Methyl-1-(4-(2-((1-((3-(3-methylmorpholino)propyl)sulfonyl)piperidin-4-yl)amino)-5-(trifluoromethyl)pyrimidin-4-yl)-1H-pyrazol-1-yl)propan-2-ol] the figure was less than 50 nM.
